Source: patent US20190359645A1, “2'3'-CYCLIC DINUCLEOTIDES COMPRISING CARBOCYCLIC NUCLEOTIDE” (Institute of Organic Chemistry and Biochemistry ASCR, V.V.I., priority 2018, published 2019)

molecular target: WT STING (Homo sapiens, UniProt Q86WV6, H232R); test: Digitonin assay using 293T wtSTING-FL reporter cells; format: cell-based; design: host or cells: 293T (ATCC CRL-3216), stably transfected; also carries the 4xISRE firefly luciferase reporter; conditions: 293T wtSTING-FL cells, digitonin buffer 30 min, then 5 h, ISRE firefly luciferase reporter; read-out: Digitonin assay EC50 WT STING
Sequence (Q86WV6 whole entry H232R): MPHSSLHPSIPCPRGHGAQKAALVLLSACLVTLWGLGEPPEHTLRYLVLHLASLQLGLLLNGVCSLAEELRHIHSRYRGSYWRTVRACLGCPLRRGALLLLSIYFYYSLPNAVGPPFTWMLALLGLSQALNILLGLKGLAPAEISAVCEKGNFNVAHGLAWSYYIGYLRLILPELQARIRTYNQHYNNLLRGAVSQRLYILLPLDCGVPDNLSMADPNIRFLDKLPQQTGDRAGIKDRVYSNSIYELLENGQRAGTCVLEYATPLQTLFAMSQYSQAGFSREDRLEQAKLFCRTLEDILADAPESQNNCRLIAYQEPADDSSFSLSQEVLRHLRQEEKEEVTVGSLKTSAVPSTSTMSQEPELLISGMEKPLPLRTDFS
Description: Two complementary oligonucleotides of the sequence […] […] […] […] (SEQ ID NO: 1) and […] […] (SEQ ID NO:2) containing four interferon-sensitive response elements (ISRE) were synthesized by Sigma Aldrich (Czech Republic, Prague). The oligonucleotides were mixed in equal molar amounts, hybridized, and cleaved by restriction endonucleases HindIII (cat. #. R^0104S, NEB, Ipswich, USA) and BglII (cat. # R^0144S, NEB, Ipswich, USA). Ultimately, they were ligated into plasmid pGL4.27 (cat. # E6651, Promega, Madison, USA) linearized with the same enzymes. As a result, the sequence with four ISRE sites was placed upstream of the minimum promoter of firefly luciferase reporter gene.
293T cells (cat. # CRL-3216, ATCC, Manassas, USA) were seeded a day before transfection at density 125,000 cells per cm^2 onto poly-D-lysine (cat. # P6407, Sigma Aldrich, Czech Republic) coated six well plates in antibiotic free DMEM with high glucose (cat. # D5796, Sigma Aldrich, Czech Republic) supplemented with 10% heat inactivated FBS (cat. # S1520, Biowest, Riverside, USA). On the day of transfection, 2.5 μg of the plasmid pUNO1-hSTING-WT (cat. # punol-hstingwt, InvivoGen, San Diego, USA,) encoding human wild type STING (WT STING) was diluted in 125 μL OptiMEM medium (cat. #31985062, ThermoFisher, Waltham, USA) and mixed with 125 μL of the same medium containing 12.5 μL of Lipofectamine 2000 (cat. #11668019, ThermoFisher, Waltham, USA). After 5 minutes incubation at room temperature (RT), 250 μL of the mixture was added dropwise to the cells in one well. Cells were incubated 36 hours at 37° C. with 5% CO2, and then detached with 0.05% Trypsin and 0.22 g/L EDTA (both cat. # L0941, Biowest, Riverside, USA).
Transfected cells were seeded onto poly-D-lysine coated six well plates at density 50,000 cells per 1 cm^2 in DMEM medium with high glucose containing 10% heat inactivated FBS, […] blasticidin (cat. # ant-bl-05, InvivoGen, San Diego, USA), 0.06 mg/ml Penicillin G and 0.1 mg/ml Streptomycin Sulfate (both cat. #. L0018, Biowest, Riverside, USA). The medium was replenished every 3-4 days until visible colonies of cells resistant to blasticidin were formed.
Blasticidin resistant cells stably expressing WT STING were further transfected with […] plasmid following the same procedure as described above. The transfected cells were selected for the resistance to 300 μg/mL hygromycin (cat. #. 10687010, ThermoFisher, Waltham, USA) in DMEM with high glucose containing 10% heat inactivated FBS, […] blasticidin, 0.06 mg/ml Penicillin G and 0.1 mg/ml Streptomycin Sulfate. Homogeneous culture of stably double transfected cells was prepared by limiting dilution of cells in 96 well plates and wells with cells were selected that originated from a single cell. These cells were expanded, and expression of WT STING was confirmed by western blot using monoclonal mouse anti STING antibodies (cat. #. MAB7169, 1:1000 dilution; […] cat. #. HAF007, 1:2000 dilution, both from R&D Systems, Minneapolis, USA), and by induction of firefly luciferase expression in the presence of 50 μM STING agonist 2′3′ cGAMP (cat. # tlrl-nacga23, InvivoGen, San Diego, USA). Genomic DNA from the transfected cells was amplified with primers pUNO1_Seq_F ([…]) (SEQ ID NO:3) and pUNO1_Seq_R ([…]) (SEQ ID NO:4) that were complementary to pUNO1 plasmid and the presence of WT STING gene in the transfected cells was confirmed by DNA sequencing.
293T wtSTING-FL cells were seeded at density of 250,000 cells per cm^2 onto 96 well poly-D-lysine coated plates in 100 μl DMEM with high glucose supplemented with 10% heat inactivated FBS. […]

| Structure (SMILES) | EC50 |
| --- | --- |
| Nc1nc2c(ncn2[C@@H]2C[C@@H]3COP(=O)(S)OC4C(O)[C@H](n5cnc6c(N)ncnc65)O[C@@H]4COP(=O)(O)OC2C3O)c(=O)[nH]1 (stereo partly drawn) [Compound 118, (6R,8R,15R,17R)-17-(2-amino-6-oxo-6,9-dihydro-1H-purin-9-yl)-8-(6-amino-9H-purin-9-yl)-3,9,18-trihydroxy-12-sulfanyl-2,4,7,11,13-pentaoxa-3λ^5,12λ^5-diphosphatricyclo[13.2.1.0^6,10]octadecane-3,12-dione] | 130 nM |
| Nc1nc2c(ncn2[C@@H]2C[C@@H]3COP(=O)(O)OC4C(O)[C@H](n5cnc6c(S)ncnc65)O[C@@H]4COP(=O)(O)OC2C3O)c(=O)[nH]1 (stereo partly drawn) [Compound 107, (6R,8R,15R,17R)-17-(2-amino-6-oxo-6,9-dihydro-1H-purin-9-yl)-3,9,12,18-tetrahydroxy-8-(6-sulfanyl-9H-purin-9-yl)-2,4,7,11,13-pentaoxa-3λ^5,12λ^5-diphosphatricyclo[13.2.1.0^6,10]octadecane-3,12-dione] | 6400 nM |
| Nc1nc(N)c2ncn([C@@H]3O[C@@H]4COP(=O)(O)OC5C(O)[C@@H](COP(=O)(O)OC4C3O)C[C@H]5n3cnc4c(=O)[nH]c(N)nc43)c2n1 (stereo partly drawn) [Compound 105, (6R,8R,15R,17R)-17-(2-amino-6-oxo-6,9-dihydro-1H-purin-9-yl)-8-(2,6-diamino-9H-purin-9-yl)-3,9,12,18-tetrahydroxy-2,4,7,11,13-pentaoxa-3λ^5,12λ^5-diphosphatricyclo[13.2.1.0^6,10]octadecane-3,12-dione] | 500 nM |
| Nc1ncnc2c1ccn2[C@@H]1O[C@@H]2COP(=O)(O)OC3C(O)[C@@H](COP(=O)(O)OC2C1O)C[C@H]3n1cnc2c(=O)[nH]cnc21 (stereo partly drawn) [Compound 122, (6R,8R,15R,17R)-8-{4-amino-7H-pyrrolo[2,3-d]pyrimidin-7-yl}-3,9,12,18-tetrahydroxy-17-(6-oxo-6,9-dihydro-1H-purin-9-yl)-2,4,7,11,13-pentaoxa-3λ^5,12λ^5-diphosphatricyclo[13.2.1.0^6,10]octadecane-3,12-dione] | 140 nM |
| Nc1nc2c(ncn2[C@@H]2C[C@@H]3COP(=O)(O)OC4C(O)[C@H](n5cnc6c(N)nc(F)nc65)O[C@@H]4COP(=O)(O)OC2C3O)c(=O)[nH]1 (stereo partly drawn) [Compound 103, (6R,8R,15R,17R)-8-(6-amino-2-fluoro-9H-purin-9-yl)-17-(2-amino-6-oxo-6,9-dihydro-1H-purin-9-yl)-3,9,12,18-tetrahydroxy-2,4,7,11,13-pentaoxa-3λ^5,12λ^5-diphosphatricyclo[13.2.1.0^6,10]octadecane-3,12-dione] | 1500 nM |
| Nc1ncnc2c1c(I)cn2[C@@H]1O[C@@H]2COP(=O)(O)OC3C(O)[C@@H](COP(=O)(O)OC2C1O)C[C@H]3n1cnc2c(=O)[nH]cnc21 (stereo partly drawn) [Compound 124, (6R,8R,15R,17R)-8-{4-amino-5-iodo-7H-pyrrolo[2,3-d]pyrimidin-7-yl}-3,9,12,18-tetrahydroxy-17-(6-oxo-6,9-dihydro-1H-purin-9-yl)-2,4,7,11,13-pentaoxa-3λ^5,12λ^5-diphosphatricyclo[13.2.1.0^6,10]octadecane-3,12-dione] | 400 nM |
| Nc1ncnc2c1ncn2[C@@H]1O[C@@H]2COP(=O)(S)O[C@@H]3[C@H](F)[C@@H](COP(=O)(S)O[C@H]2[C@H]1F)C[C@H]3n1cnc2c(=O)[nH]cnc21 (single isomer, unassigned) [Compound 128b] | 400 nM |
| Nc1nc2c(ncn2[C@@H]2C[C@@H]3COP(=O)(O)OC4C(N)[C@H](n5cnc6c(N)ncnc65)O[C@@H]4COP(=O)(O)OC2C3O)c(=O)[nH]1 (stereo partly drawn) [Compound 109, (6R,8R,15R,17R)-9-amino-17-(2-amino-6-oxo-6,9-dihydro-1H-purin-9-yl)-8-(6-amino-9H-purin-9-yl)-3,12,18-trihydroxy-2,4,7,11,13-pentaoxa-3λ^5,12λ^5-diphosphatricyclo[13.2.1.0^6,10]octadecane-3,12-dione] | 130 nM |
| Nc1nc2c(ncn2[C@@H]2C[C@@H]3COP(=O)(O)OC4C(O)[C@H](n5cnc6c(Cl)ncnc65)O[C@@H]4COP(=O)(O)OC2C3O)c(=O)[nH]1 (stereo partly drawn) [Compound 115, (6R,8R,15R,17R)-17-(2-amino-6-oxo-6,9-dihydro-1H-purin-9-yl)-8-(6-chloro-9H-purin-9-yl)-3,9,12,18-tetrahydroxy-2,4,7,11,13-pentaoxa-3λ^5,12λ^5-diphosphatricyclo[13.2.1.0^6,10]octadecane-3,12-dione] | 70 nM |
| Nc1ncc2ncn([C@@H]3O[C@@H]4COP(=O)(O)OC5C(O)[C@@H](COP(=O)(O)OC4C3O)C[C@H]5n3cnc4c(=O)[nH]cnc43)c2n1 (stereo partly drawn) [Compound 119, (6R,8R,15R,17R)-8-(2-amino-9H-purin-9-yl)-3,9,12,18-tetrahydroxy-17-(6-oxo-6,9-dihydro-1H-purin-9-yl)-2,4,7,11,13-pentaoxa-3λ^5,12λ^5-diphosphatricyclo[13.2.1.0^6,10]octadecane-3,12-dione] | 400 nM |
| Nc1nc2c(ncn2[C@@H]2C[C@@H]3COP(=O)(O)OC4C(O)[C@H](n5nnc6c(N)ncnc65)O[C@@H]4COP(=O)(O)OC2C3O)c(=O)[nH]1 (stereo partly drawn) [Compound 116, (6R,8R,15R,17R)-8-{7-amino-3H-[1,2,3]triazolo[4,5-d]pyrimidin-3-yl}-17-(2-amino-6-oxo-6,9-dihydro-1H-purin-9-yl)-3,9,12,18-tetrahydroxy-2,4,7,11,13-pentaoxa-3λ^5,12λ^5-diphosphatricyclo[13.2.1.0^6,10]octadecane-3,12-dione] | 1700 nM |
| CSc1ncnc2c1ncn2[C@@H]1O[C@@H]2COP(=O)(O)OC3C(O)[C@@H](COP(=O)(O)OC2C1O)C[C@H]3n1cnc2c(=O)[nH]cnc21 (stereo partly drawn) [Compound 125, (1S,6R,8R,9R,10S,15R,17R,18R)-3,9,12,18-tetrahydroxy-8-[16-(methylsulfanyl)-9H-purin-9-yl]-17-(6-oxo-6,9-dihydro-1H-purin-9-yl)-2,4,7,11,13-pentaoxa-3λ^5,12λ^5-diphosphatricyclo[13.2.1.0^6,10]octadecane-3,12-dione] | 210 nM |
| Nc1nc2c(ncn2[C@@H]2C[C@@H]3COP(=O)(O)OC4C(O)[C@H](n5cnc6c(=O)[nH]cnc65)O[C@@H]4COP(=O)(O)OC2C3O)c(=O)[nH]1 (stereo partly drawn) [Compound 104, (6R,8R,15R,17R)-17-(2-amino-6-oxo-6,9-dihydro-1H-purin-9-yl)-3,9,12,18-tetrahydroxy-8-(6-oxo-6,9-dihydro-1H-purin-9-yl)-2,4,7,11,13-pentaoxa-3λ^5,12λ^5-diphosphatricyclo[13.2.1.0^6,10]octadecane-3,12-dione] | 100 nM |
| CSc1nc(N)nc2c1ncn2[C@@H]1O[C@@H]2COP(=O)(O)OC3C(O)[C@@H](COP(=O)(O)OC2C1O)C[C@H]3n1cnc2c(=O)[nH]c(N)nc21 (stereo partly drawn) [Compound 112, (6R,8R,15R,17R)-8-[2-amino-6-(methylsulfanyl)-9H-purin-9-yl]-17-(2-amino-6-oxo-6,9-dihydro-1H-purin-9-yl)-3,9,12,18-tetrahydroxy-2,4,7,11,13-pentaoxa-3λ^5,12λ^5-diphosphatricyclo[13.2.1.0^6,10]octadecane-3,12-dione] | 15100 nM |
